Laboratory results taken from ChEMBL document CHEMBL1949616, “Synthesis and human telomeric G-quadruplex DNA-binding activity of glucosaminosides of shikonin/alkannin” (Bioorg Med Chem Lett, 2012).
Active and inactive are the calls of the source. The rule behind the calls is not given here.

How the values were obtained:
Format in all cases: nucleic-acid assay
Nucleic Acid [1] = assay: Binding affinity to human telomeric G-quadruplex DNA at 200 uM after 1 hr by ESI-TOF-MS analysis
Nucleic Acid [2] = assay: Binding affinity to human telomeric G-quadruplex DNA assessed as bathochromic shift at 10 uM at pH 7.6 by UV-Vis spectrophotometric analysis
Nucleic Acid [3] = assay: Binding affinity to human telomeric G-quadruplex DNA assessed as hypochromic effect at 10 uM at pH 7.6 by UV-Vis spectrophotometric analysis
Nucleic Acid [4] = assay: Binding affinity to human telomeric DNA AGGGTTAGGGT at 200 uM after 1 hr by ESI-TOF-MS analysis

CC(=O)N[C@H]1[C@H](O[C@@H](CC=C(C)C)C2=CC(=O)c3c(O)ccc(O)c3C2=O)O[C@H](CO)[C@@H](O)[C@@H]1O
Activity (Nucleic Acid [1]): 39.3%

CC(C)=CC[C@@H](O)C1=CC(=O)c2c(O)ccc(O)c2C1=O
Activity (Nucleic Acid [1]): 0%

COc1ccc2cc3[n+](cc2c1OC)CCc1cc2c(cc1-3)OCO2
Activity (Nucleic Acid [1]): 58.9%

CC(C)=CC[C@H](O)C1=CC(=O)c2c(O)ccc(O)c2C1=O
Activity (Nucleic Acid [1]): 0%

CC(=O)N[C@H]1[C@H](O[C@H](CC=C(C)C)C2=CC(=O)c3c(O)ccc(O)c3C2=O)O[C@H](CO)[C@@H](O)[C@@H]1O
Activity (Nucleic Acid [2]): Active | Activity (Nucleic Acid [3]): 32.8% | Activity (Nucleic Acid [4]): 16% | Activity (Nucleic Acid [1]): 47%
